The source made the active and inactive calls.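 Rule for the calls: active = compounds giving half or more protection of infected cells from virus-caused growth loss, again on retest; inactive = the rest.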 Where a SMILES comes first, the peptide text is derived from it. The star is where a group is joined. Boc = CC(C)(C)OC(=O)*
Test system: CEM cells HIV-1 protection, formazan growth assay
Assay: NCI AIDS Antiviral Assay
Details: for IC50: measured here: growth of uninfected CEM cells
In short: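 Screen of anti-HIV-1 activity in human CEM cells using a formazan-based growth measurement at five drug concentrations. Hits with 50% or greater protection were repeated, and confirmation required reproducible complete protection.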

Compound	outcome	EC50 [µM]	IC50 [µM]
O=C(O)C1=NN(c2ccc(S(=O)(=O)O)cc2)C(=O)C1N=Nc1ccc(S(=O)(=O)O)cc1 (stereo not given)	inactive	–	–
O=C(N/N=C/C=C/c1ccccc1)c1ccccc1Nc1ccccc1C(=O)N/N=C/C=C/c1ccccc1	–	> 34.7	4.9
OCC(O)C(O)C(O)C1SC(c2ccccc2)=NN1c1ccccc1 (stereo not given)	inactive	–	–
CCOC(=O)C(NC(C)=O)(Nc1ccc(F)cc1)C(F)(F)F (stereo not given)	inactive	–	–
O=C1c2cccc3cc([N+](=O)[O-])cc(c23)C(=O)N1CCc1ccccn1	–	> 200	4.37
Clc1nc(NC23CC4CC(CC(C4)C2)C3)nc(NC23CC4CC(CC(C4)C2)C3)n1	–	> 200	52.5
CC1=C(C(=O)Nc2cccc(Cl)c2)C(c2ccccc2O)C(C(=O)Nc2cccc(Cl)c2)=C(C)N1	–	> 50.1	12
O=C(O)CCSC(=O)Nc1cccc([N+](=O)[O-])c1	inactive	–	–
CC1(C)C=C(/C=N/Nc2ccc([N+](=O)[O-])cc2)C(C#N)=C(O)C1(C#N)C#N	–	> 200	53.7
CC(C)(C)OC(=O)NC(Cc1ccc(O)cc1)C(=O)NC(CCCCN)C(=O)O (stereo not drawn) (Boc-Tyr-Lys-OH; configuration not given here)	–	> 200	91.2
CC(=O)CC(=O)CCCC(=O)Nc1ccc(Cl)cc1Cl	inactive	–	–
Cc1ccc(N/N=c2\c3nc4ccccc4nc2n(-c2ccccc2C)c(=S)n3-c2ccccn2)cc1	–	> 17.8	–
O=C1NC2(O)c3ccccc3C(=O)C2(O)N1c1ccccc1 (stereo not given)	–	> 851	692
Cn1c(=O)cc(NCc2ccc(Cl)cc2)[nH]c1=O	–	> 200	195
CC(=O)N(CC(=O)Nc1ccc(S(N)(=O)=O)cc1)C(C)C	–	> 200	> 200
Cc1ccc(S(=O)(=O)N2CCN(CCO)CCN(S(=O)(=O)c3ccc(C)cc3)CCN(CCO)CC2)cc1	–	> 200	34.7
O=C(/C=C/c1ccc(Cl)cc1)c1ccncc1	–	> 40.7	38
C[C@@H](O)CCC(=O)c1ccoc1	–	> 1480	> 1480
CN/N=C(\C)C(CN(C)C)C(c1ccccc1)c1c(O)c2ccccc2oc1=O (stereo not given)	–	> 135	102
Cc1cc(=O)oc2c1cc(OCC(=O)OCCN1CCCCC1)c1occ(C)c12	inactive	–	–
COC(=O)/C(=N/NC(C)(C)C)C(C(=O)OC)C(=O)C(=O)Nc1nc2ccc([N+](=O)[O-])cc2s1 (stereo not given)	–	> 53.7	> 53.7
CN(C)C(=O)N(CCC#N)CCN(C(=O)N(C)C)c1ccccc1	–	> 200	> 200

Compound	outcome	EC50 [µM]	IC50 [µM]
O=C1NC(=O)C(=Cc2ccccc2)C(=O)N1	–	> 166	> 166
CCCc1n[nH]c(=O)n1N1C(=O)C=CC1=O	–	> 200	> 200
CC(=O)NNc1nc(C)c(C(/C=C/c2cccc([N+](=O)[O-])c2)=N/NC(=S)NN)s1	–	> 72.4	> 72.4
CC1=C(C#N)C(=O)OC1(C)C(CC(=O)c1ccccc1)c1ccccc1 (stereo not given)	–	> 200	8.32
Cc1cccc2c1C(=O)C1(Cc3ccccc3C1=O)C2 (stereo not given)	–	> 200	> 200
CC1CSS(=O)O1 (stereo not given)	–	> 200	> 200
[Br][Sn]12[c]3ccccc3CN(Cc3cccc[c]31)Cc1cccc[c]12	–	> 200	> 200
Nc1nc2nc3c(nc2c(=O)[nH]1)CN(C1CCCCC1)C3=O	–	> 74.1	> 74.1
CCCCC(CC)COC(=O)CC(C(=O)OCC(CC)CCCC)S(=O)(=O)O (stereo not given) (tested in a mixture with another compound)	–	> 200	> 200
COc1c(Cc2ccccc2O)c(O)c(Cc2cc(Cc3ccccc3O)ccc2O)c(O)c1C(=O)CCc1ccccc1	–	> 60.3	21.4
[C-]#[N+][C@@H]1C2C([C@@]3(C)CCC(C(C)(C)[N+]#[C-])O3)CC[C@](C)([N+]#[C-])[C@H]2CC[C@@]1(C)O (stereo not given in full)	inactive	–	–
CCOC(=O)c1c(C)[nH]c(C(=O)C(N=O)C(=O)OCC)c1C (stereo not given)	–	> 200	> 200
N#CC(C#N)=C1C(C#N)=C(N)NC12OCCO2	–	> 200	> 200
CCSc1nc(C)nc2c1sc1nc3ccccc3n12	–	> 100	> 100
COc1ccc2c(c1)CC1c3c(cc4c(c3-2)OCO4)CCN1C (stereo not given)	–	> 589	3.31
Cc1nn(C(=O)Cc2ccccc2)c2c1C(c1ccc3ccccc3c1O)SC(N)=N2 (stereo not given)	–	> 200	24
CCC1CCC2c3c([nH]c4ccc(C)cc34)C3C(=O)N(N(C)C)C(=O)C3C2C1 (stereo not given)	–	> 200	> 100
COC(=O)c1ccc(Cc2ccc(C(=O)OC)o2)o1	–	> 191	> 191
COc1cc(Cl)cc(=O)c(O)c1OC	–	> 437	20.9
C=CCON(C(=O)OC(C)(C)C)C(C)(C)C	–	> 200	> 200
CC1C2CC(CC2O)C1(C)C (stereo not given)	–	> 1620	> 1620
O=C(NCCCCCCCCNC(=O)c1cc(O)c(O)c(O)c1)c1cc(O)c(O)c(O)c1	–	> 100	13.8

Compound	outcome	EC50 [µM]	IC50 [µM]
C=C(C)C(=O)OC1C/C(CO)=C\C(O)C/C(C)=C/C2OC(=O)C(=C)C21 (stereo not given)	–	> 724	12.3
CCOC(=O)c1nc(SC)sc1NC(=O)c1ccc([N+](=O)[O-])cc1	–	> 200	> 200
COC(=O)C=C(c1cc(Cl)c(OC)c(C(=O)OC)c1)c1cc(Cl)c(OC)c(C(=O)OC)c1	–	> 200	17.8
CN(C)C1=NC(=O)C(c2ccccc2)O1 (stereo not given)	–	> 200	> 200
O=C(Cn1nc(Br)c(Br)c1Br)c1ccccc1	–	> 200	19.5
C[C@H](C(=O)C12CC3CC(CC(C3)C1)C2)[C@H](O)c1ccccc1	inactive	–	–
O=S(=O)(Oc1ccccn1)c1ccc(Br)cc1	–	> 200	> 200
NC(=O)N/N=C(/Cc1nc2ccc(C(=O)c3ccccc3)cc2[nH]c1=O)C(=O)Nc1ccc(C(F)(F)F)cc1[N+](=O)[O-]	inactive	–	–
COC(=O)c1ccc(NCC2=CC(=O)C=CC2=O)cc1O	–	> 200	4.47
CC(=O)Nc1ncc2ccccc2c1-c1ccc(NC(=O)CN(CCO)CCO)cc1	–	> 200	> 200
COC(=O)C1(C(=O)OC)CC(=O)c2cc3c(cc2-c2c(cc(OC)c(OC)c2OC)C1)OCO3	–	> 28.8	> 28.8
O=S(=O)(O)O	–	> 263	40.7
O=C(O)CCCCCCCc1cccc(OCCOCCO)c1	–	> 100	> 100
Cc1ccnc2n[nH]nc12	–	> 1860	372
O=c1nc(N2CCCC2)nc(N2CCCC2)s1	inactive	–	–
COC(=O)c1cc(Cc2cc(C)c(OC)c(C(=O)OC)c2)cc(C)c1OC	–	> 200	14.5
O=S(=O)(C1=CC(S(=O)(=O)c2ccccc2)COC1)c1ccccc1 (stereo not given)	inactive	–	–
CCCC(C(=O)OCC(C)N1CCCC1(C)C)C1CCCC1 (stereo not given)	inactive	–	–
COc1cc(-c2oc3c(OC)cc(OC)c(O)c3c(=O)c2OC)cc(OC)c1OC	–	> 200	> 200
COC(=O)C1(Cc2ccc3c(c2)CCC3)Cc2ccc3c(c2C1)CCC3 (stereo not given)	–	> 200	37.2
